In patent publication US8772509B2, “Indole compounds as positive allosteric modulators of the muscarinic receptor” (Vanderbilt University, priority 2010, dated 2014):

Molecular target: T1, mAChR M1 (UniProt P08482)
T1 sequence (P08482 1-460): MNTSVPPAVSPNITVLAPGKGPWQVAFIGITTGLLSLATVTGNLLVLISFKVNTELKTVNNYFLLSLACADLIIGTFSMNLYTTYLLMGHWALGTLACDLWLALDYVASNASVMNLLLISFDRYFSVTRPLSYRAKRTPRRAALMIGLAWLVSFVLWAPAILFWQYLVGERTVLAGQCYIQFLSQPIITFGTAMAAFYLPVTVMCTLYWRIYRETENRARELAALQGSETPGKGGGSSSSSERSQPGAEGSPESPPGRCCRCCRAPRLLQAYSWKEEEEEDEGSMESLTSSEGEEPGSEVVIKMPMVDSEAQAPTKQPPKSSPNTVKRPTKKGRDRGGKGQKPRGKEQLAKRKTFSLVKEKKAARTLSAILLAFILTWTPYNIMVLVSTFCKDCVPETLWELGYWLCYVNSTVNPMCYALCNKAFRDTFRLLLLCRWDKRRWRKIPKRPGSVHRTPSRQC
Assay: mAChR M1 cell-based functional assay (calcium mobilization, Fluo-4, FDSS)
Details: for Efficacy (% ACh maximum at 30 μM): maximal calcium flux response from curve fit or response at 30 μM compound, as % of the EC80 ACh response; for EC50: positive allosteric modulation of EC20 acetylcholine response, CHO-K1 cells expressing mAChR M1, read-out: Potency (EC50)
Method: Chinese hamster ovary (CHO-K1) cells stably expressing rat (r)M1 were purchased from the American Type Culture Collection and cultured according to their indicated protocol. […] To make stable rM2, hM2, rM3, hM4, and rM4 cell lines for use in calcium mobilization assays, these cells also were stably transfected with a chimeric G-protein (Gqi5) (provided by B. R. Conklin, University of California, San Francisco) using Lipofectamine 2000. rM1, hM1, rM3, hM3, rM5, and hM5 cells were grown in Ham's F-12 medium containing 10% heat-inactivated fetal bovine serum (FBS), 20 mM HEPES, and 50 μg/mL G418 sulfate. rM2-Gqi5, hM2-Gqi5, and hM4-Gqi5 cells were grown in the same medium also containing 500 μg/mL Hygromycin B. Stable rM4-Gqi5 cells were grown in DMEM containing 10% heat-inactivated FBS, 20 mM HEPES, 400 μg/mL G418 sulfate, and 500 μg/mL Hygromycin B.
For high throughput measurement of agonist-evoked increases in intracellular calcium, CHO-K1 cells stably expressing muscarinic receptors were plated in growth medium lacking G418 and hygromycin at 15,000 cells/20 μL/well in Greiner 384-well black-walled, tissue culture (TC)-treated, clear-bottom plates (VWR). Cells were incubated overnight at 37° C. and 5% CO2. […] Compound master plates were formatted in an 11 point CRC format (1:3 dilutions) in 100% DMSO with a starting concentration of 10 mM using the BRAVO liquid handler (Agilent). Test compound CRCs were then transferred to daughter plates (240 nL) using the Echo acoustic plate reformatter (Labcyte, Sunnyvale, Calif.) and then diluted into assay buffer (40 μL) to a 2× stock using a Thermo Fisher Combi (Thermo Fisher Scientific, Waltham, Mass.).
Calcium flux was measured using the Functional Drug Screening System (FDSS) 6000 (Hamamatsu Corporation, Tokyo, Japan) as an increase in the fluorescent static ratio. Compounds were applied to cells (20 μL, 2×) using the automated system of the FDSS 6000 at 4 s into the 300 s protocol and the data were collected at 1 Hz. […] Agonist activity was analyzed as a concentration-dependent increase in calcium mobilization upon compound addition. Positive allosteric modulator activity was analyzed as a concentration-dependent increase in the EC20 acetylcholine response. Antagonist activity was analyzed as a concentration-dependent decrease in the EC80 acetylcholine response. Concentration-response curves were generated using a four-parameter logistical equation in XLfit curve fitting software (IDBS, Bridgewater, N.J.) for Excel (Microsoft, Redmond, Wash.) or Prism (GraphPad Software, Inc., San Diego, Calif.).
The calcium mobilization assay was also used to determine “efficacy”. In the context of the assays carried out for the data in Table I, “efficacy” (% ACh at 30 μM) is defined as the maximal response in the calcium flux as determined by the sigmoidal curve fit of the concentration response curve, or in the absence of an acceptable curve fit, the response recorded at 30 μM test compound, stated as a percentage of the response elicited by a concentration of Ach that induces approximately 80% of a maximal (i.e. saturating) ACh response.

Row | Efficacy (% ACh maximum at 30 μM) | EC50 | Compound
1 | 43% | > 10 µM | O=C(CS(=O)(=O)c1cn(Cc2cccc(Br)c2)c2cc(F)cc(F)c12)NC1COC1 [compound 34, 2-((1-(3-bromobenzyl)-4,6-difluoro-1H-indol-3-yl)sulfonyl)-N-(oxetan-3-yl)acetamide]
2 |  | > 10 µM | Cc1cc(NC(=O)CS(=O)(=O)c2cn(Cc3cc(Br)cc(Br)c3)c3ccccc23)no1 [compound 68, 2-{1-[(3,5-dibromophenyl)methyl]-1H-indole-3-sulfonyl}-N-(5-methyl-1,2-oxazol-3-yl)acetamide]
3 | 42% | > 10 µM | O=C(CS(=O)(=O)c1cn(Cc2cccc(Br)c2)c2cc(F)cc(F)c12)Nc1cccnc1 [compound 35, 2-((1-(3-bromobenzyl)-4,6-difluoro-1H-indol-3-yl)sulfonyl)-N-(pyridin-3-yl)acetamide]
4 | 90% | 2.19 µM | Cc1cc(NC(=O)CS(=O)(=O)c2cn(Cc3cccc(-c4cn[nH]c4)c3)c3ccccc23)no1 [compound 5, 2-((1-(3-(1H-pyrazol-4-yl)benzyl)-1H-indol-3-yl)sulfonyl)-N-(5-methylisoxazol-3-yl)acetamide]
5 |  | > 10 µM | Cc1cc(NC(=O)C(C)S(=O)(=O)c2cn(Cc3cc(Br)cc(Br)c3)c3ccccc23)no1 (stereo not drawn) [compound 73, 2-{1-[(3,5-dibromophenyl)methyl]-1H-indole-3-sulfonyl}-N-(5-methyl-1,2-oxazol-3-yl)propanamide]
6 |  | > 10 µM | Cc1cc(NC(=O)CS(=O)(=O)c2cn(Cc3cccc(-c4ccc(N5CCOCC5)nc4)c3)c3ccccc23)no1 [compound 72, N-(5-methyl-1,2-oxazol-3-yl)-2-[1-({3-[6-(morpholin-4-yl)pyridin-3-yl]phenyl}methyl)-1H-indole-3-sulfonyl]acetamide]
7 | 95% | 2.75 µM | Cc1cc(NC(=O)CS(=O)(=O)c2cn(Cc3cccc(-c4cnn(C)c4)c3)c3ccccc23)no1 [compound 12, 2-((1-(3-(1-methyl-1H-pyrazol-4-yl)benzyl)-1H-indol-3-yl)sulfonyl)-N-(5-methylisoxazol-3-yl)acetamide]
8 |  | > 10 µM | Cc1cc(NC(=O)CS(=O)(=O)c2cn(Cc3ccc(Br)cc3F)c3ccccc23)no1 [compound 60, 2-{1-[(4-bromo-2-fluorophenyl)methyl]-1H-indole-3-sulfonyl}-N-(5-methyl-1,2-oxazol-3-yl)acetamide]
9 | 91% | 3.79 µM | Cc1cc(NC(=O)CS(=O)(=O)c2cn(Cc3cccc(Br)c3)c3ccccc23)no1 [compound 22, 2-((1-(3-bromobenzyl)-1H-indol-3-yl)sulfonyl)-N-(5-methylisoxazol-3-yl)acetamide]
10 | 96% | 3.07 µM | Cc1cc(NC(=O)CS(=O)(=O)c2cn(Cc3cc(-c4cn[nH]c4)ccc3F)c3ccccc23)no1 [compound 15, 2-((1-(2-fluoro-5-(1H-pyrazol-4-yl)benzyl)-1H-indol-3-yl)sulfonyl)-N-(5-methylisoxazol-3-yl)acetamide]
11 |  | > 10 µM | COc1ccc(Cn2cc(S(=O)(=O)CC(=O)Nc3cc(C)on3)c3ccccc32)cc1 [compound 46, 2-{1-[(4-methoxyphenyl)methyl]-1H-indole-3-sulfonyl}-N-(5-methyl-1,2-oxazol-3-yl)acetamide]
12 | 57% | 4.6 µM | O=C(CS(=O)(=O)c1cn(Cc2cccc(-c3cccnc3)c2)c2cc(F)cc(F)c12)Nc1ccccn1 [compound 25, 2-((4,6-difluoro-1-(3-(pyridin-3-yl)benzyl)-1H-indol-3-yl)sulfonyl)-N-(pyridin-2-yl)acetamide]
13 |  | > 10 µM | Cc1cc(NC(=O)C(Cc2cccc(Cl)c2)S(=O)(=O)c2cn(Cc3cccc(Cl)c3)c3ccccc23)no1 (stereo not drawn) [compound 69, 3-(3-chlorophenyl)-2-{1-[(3-chlorophenyl)methyl]-1H-indole-3-sulfonyl}-N-(5-methyl-1,2-oxazol-3-yl)propanamide]
14 |  | > 10 µM | O=C(CS(=O)(=O)c1cn(Cc2cc(Br)ccc2F)c2ccccc12)Nc1ccccc1 [compound 59, 2-{1-[(5-bromo-2-fluorophenyl)methyl]-1H-indole-3-sulfonyl}-N-phenylacetamide]
15 |  | > 10 µM | Cc1cc(NC(=O)CS(=O)(=O)c2cn(Cc3ccc(Cl)cc3)c3ccccc23)no1 [compound 48, 2-{1-[(4-chlorophenyl)methyl]-1H-indole-3-sulfonyl}-N-(5-methyl-1,2-oxazol-3-yl)acetamide]
16 |  | > 10 µM | Cc1cc(NC(=O)CS(=O)(=O)c2cn(Cc3ccc(F)c(Cl)c3)c3ccccc23)no1 [compound 52, 2-{1-[(3-chloro-4-fluorophenyl)methyl]-1H-indole-3-sulfonyl}-N-(5-methyl-1,2-oxazol-3-yl)acetamide]
17 | 36% | 3.5 µM | O=C(CS(=O)(=O)c1cn(Cc2cccc(-c3ccnc(F)c3)c2)c2cc(F)cc(F)c12)Nc1ccccn1 [compound 20, 2-((4,6-difluoro-1-(3-(2-fluoropyridin-4-yl)benzyl)-1H-indol-3-yl)sulfonyl)-N-(pyridin-2-yl)acetamide]
18 |  | > 10 µM | Cc1cc(NC(=O)CS(=O)(=O)c2cn(Cc3ccc(F)cc3F)c3ccccc23)no1 [compound 49, 2-{1-[(2,4-difluorophenyl)methyl]-1H-indole-3-sulfonyl}-N-(5-methyl-1,2-oxazol-3-yl)acetamide]
19 | 79% | 6.54 µM | COc1cccc(Cn2cc(S(=O)(=O)CC(=O)Nc3cc(C)on3)c3ccccc32)c1 [compound 33, 2-((1-(3-methoxybenzyl)-1H-indol-3-yl)sulfonyl)-N-(5-methylisoxazol-3-yl)acetamide]
20 |  | > 10 µM | Cc1cc(NC(=O)CSc2c[nH]c3ccccc23)no1 [compound 41, 2-(1H-indol-3-ylsulfanyl)-N-(5-methyl-1,2-oxazol-3-yl)acetamide]
21 | 72% | 3.7 µM | O=C(CS(=O)(=O)c1cn(Cc2cccc(Br)c2)c2cc(F)cc(F)c12)Nc1noc2ccccc12 [compound 21, N-(benzo[d]isoxazol-3-yl)-2-((1-(3-bromobenzyl)-4,6-difluoro-1H-indol-3-yl)sulfonyl)acetamide]
22 | 45% | > 10 µM | O=C(CS(=O)(=O)c1cn(Cc2cccc(-c3cncnc3)c2)c2cc(F)cc(F)c12)Nc1ccccn1 [compound 36, 2-((4,6-difluoro-1-(3-(pyrimidin-5-yl)benzyl)-1H-indol-3-yl)sulfonyl)-N-(pyridin-2-yl)acetamide]
23 |  | > 10 µM | Cc1cc(NC(=O)CSc2cn(Cc3cccc(Br)c3)c3ccccc23)no1 [compound 51, 2-({1-[(3-bromphenyl)methyl]-1H-indol-3-yl}sulfanyl)-N-(5-methyl-1,2-oxazol-3-yl)acetamide]
24 |  | > 10 µM | Cc1cc(NC(=O)CS(=O)(=O)c2cn(Cc3cccc(C(F)(F)F)c3)c3ccccc23)no1 [compound 54, N-(5-methyl-1,2-oxazol-3-yl)-2-(1-{[3-(trifluoromethyl)phenyl]methyl}-1H-indole-3-sulfonyl)acetamide]
25 |  | > 10 µM | Cc1cc(NC(=O)C(Cc2ccc(F)cc2F)S(=O)(=O)c2cn(Cc3ccc(F)cc3F)c3ccccc23)no1 (stereo not drawn) [compound 71, 3-(2,4-difluorophenyl)-2-{1-[(2,4-difluorophenyl)methyl]-1H-indole-3-sulfonyl}-N-(5-methyl-1,2-oxazol-3-yl)propanamide]
